This data set concerns A2780cp cells. The experiment in a line: Colony formation assay. The format is cell-based, human. To be noted: significantly rescued by ectopic expression of p65 (FIGS. 1G & H).

Description: F. Colony formation assay: A2780cp cells were infected with p65 expressing or GFP (Cntrl) virus followed by plating 1000 cells per condition. The cells were then treated with 2 μM MST312 or DMSO control for 2 weeks followed by staining with crystal violet after 12 days. Number of colonies was counted from duplicate plates.

On to “sh-hTERT: shRNA directed against hTERT, SEQ ID NO: 48 (CATTTCATCAGCAAGTTTGGA)”, for which the “colony forming ability of cells” value is “reduction in colony forming ability”.

For the origin of these results see patent US20150232856A1, “TELOMERASE INHIBITORS FOR USE IN THERAPY” (AGENCY FOR SCIENCE, TECHNOLOGY AND RESEARCH, priority 2012, published 2015).
